# Test results: BindingDB's records for doi:10.1016/j.bioorg.2017.01.015 (Universiti Teknologi MARA (UiTM), 2017)
# Target: T1, Beta-glucuronidase (Homo sapiens, UniProt P08236)
# T1 sequence (P08236 whole entry): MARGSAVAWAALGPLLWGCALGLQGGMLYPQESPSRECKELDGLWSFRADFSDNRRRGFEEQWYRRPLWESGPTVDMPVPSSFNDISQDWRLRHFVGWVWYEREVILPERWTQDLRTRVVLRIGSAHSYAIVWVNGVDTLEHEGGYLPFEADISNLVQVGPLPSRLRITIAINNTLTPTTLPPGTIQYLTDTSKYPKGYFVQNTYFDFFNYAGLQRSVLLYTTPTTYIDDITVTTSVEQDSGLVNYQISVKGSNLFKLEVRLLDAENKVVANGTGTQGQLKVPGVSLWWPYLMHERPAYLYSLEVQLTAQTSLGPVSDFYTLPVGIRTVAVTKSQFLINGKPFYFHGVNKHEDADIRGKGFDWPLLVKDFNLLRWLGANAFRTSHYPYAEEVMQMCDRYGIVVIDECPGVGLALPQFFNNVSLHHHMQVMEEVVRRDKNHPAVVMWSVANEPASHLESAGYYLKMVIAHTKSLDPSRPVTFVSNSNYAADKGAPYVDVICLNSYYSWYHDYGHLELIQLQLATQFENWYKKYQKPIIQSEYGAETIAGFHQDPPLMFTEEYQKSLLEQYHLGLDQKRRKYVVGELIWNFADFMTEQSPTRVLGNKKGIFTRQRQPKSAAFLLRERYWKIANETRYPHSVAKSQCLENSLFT
# Assay: β-Glucuronidase Assay
# Method: 250 μL was the volume of total reaction. Reaction mixture containing 5 μL of test compound solution, 185 μL of 0.1 M acetate buffer and 10 μL of enzyme solution were incubated for 30 min at 37 °C. […] To avoid precipitation compound concentration were decreased and the volume of reaction was high (200 μL). Precipitation probability was less thus addition of detergents was not needed.
row,IC50 [µM],Structure (SMILES)
1,38.5,"COc1ccccc1-c1nnc(-c2ccc(C(=O)NNS(=O)(=O)c3ccccc3Br)cc2)o1 [2-Bromo-N'-(4-(5-(2-methoxyphenyl)-1,3,4-oxadiazol-2yl)benzoyl)benzenesulfonohydrazide (7)]"
2,10.3,"COc1ccccc1-c1nnc(-c2ccc(C(=O)NNS(=O)(=O)c3ccccc3F)cc2)o1 [2-Fluoro-N'-(4-(5-(2-methoxyphenyl)-1,3,4-oxadiazol-2yl)benzoyl)benzenesulfonohydrazide (4)]"
3,58.2,"COc1ccccc1-c1nnc(-c2ccc(C(=O)NNS(=O)(=O)c3cccc(Br)c3)cc2)o1 [3-Bromo-N'-(4-(5-(2-methoxyphenyl)-1,3,4-oxadiazol-2yl)benzoyl)benzenesulfonohydrazide (9)]"
4,28.1,"COc1ccccc1-c1nnc(-c2ccc(C(=O)NNS(=O)(=O)c3cccc(F)c3)cc2)o1 [3-Fluoro-N'-(4-(5-(2-methoxyphenyl)-1,3,4-oxadiazol-2yl)benzoyl)benzenesulfonohydrazide (5)]"
5,98.1,"COc1ccccc1-c1nnc(-c2ccc(C(=O)NNS(=O)(=O)c3ccc(C)cc3)cc2)o1 [4-methyl-N'-(4-(5-(2-methoxyphenyl)-1,3,4-oxadiazol-2-yl)benzoyl)-4-methylbenzenesulfonohydrazide (15)]"
6,24.3,"COc1ccccc1-c1nnc(-c2ccc(C(=O)NNS(=O)(=O)c3ccccc3C)cc2)o1 [N'-(4-(5-(2-methoxyphenyl)-1,3,4-oxadiazol-2-yl)benzoyl)-2-methylbenzenesulfonohydrazide (14)]"
7,44.7,"COc1ccccc1-c1nnc(-c2ccc(C(=O)NNS(=O)(=O)c3ccccc3[N+](=O)[O-])cc2)o1 [N'-(4-(5-(2-methoxyphenyl)-1,3,4-oxadiazol-2-yl)benzoyl)-2-nitrobenzenesulfonohydrazide (10)]"
8,89.3,"COc1ccccc1-c1nnc(-c2ccc(C(=O)NNS(=O)(=O)c3cccc([N+](=O)[O-])c3)cc2)o1 [N'-(4-(5-(2-methoxyphenyl)-1,3,4-oxadiazol-2-yl)benzoyl)-3-nitrobenzenesulfonohydrazide (12)]"
